Laboratory results: patent US20020006447A1, “Anti-chlamydia agent” (Mitsui Norin Co., Ltd., priority 1998, published 2002)

Test system: C. trachomatis
Assay: C. trachomatis inclusion body formation in HeLa 229 cells after pre-incubation with single catechins (Example 2)
Format: cell-based, Chlamydia trachomatis
Conditions: incubated for 90 minutes at 37° C.
Description: As test Chlamydia was used C. trachomatis strain. Chlamydia capable of forming 10^4 inclusion bodies was incubated at 37° C. for 90 minutes in a SPG solution containing (−)-epicatechin gallate or (−)-epigallocatechin gallate in various concentratIons. After completion of the incubation, each solution was inoculated onto Hela 229 cell cultivated by monolayer culture and adsorbed by centrifugation at 1,500 rpm for 60 minutes. Thereafter, the inoculum was removed and culture medium for Chlamydia (Eagle Minimum Essential Culture Medium containing 1 μg/ml cycloheximide) was added and cultivation was performed at 37° C. for 72 hours. After completion of cultivation, the culture medium was removed and the cells were fixed with methanol and then stained with FITC-labeled anti-C. trachomatis monoclonal antibody, followed by counting the number of inclusion bodies of C. trachomatis.

| Molecule | concentration that completely inhibited the growth of C. trachomatis [mg/mL] |
| --- | --- |
| (−)-epigallocatechin gallate | 1.6 |
| O=C(O[C@@H]1Cc2c(O)cc(O)cc2O[C@@H]1c1ccc(O)c(O)c1)c1cc(O)c(O)c(O)c1 [(−)-epicatechin gallate] | 0.8 |
